Target: GABA-A receptor; anion channel
Assay: Binding affinity towards benzodiazepine/GABA A receptor.
Format: protein-complex assay
Design: unit not given here

Structure (SMILES) | Log IC50
CC(C)(C)N1C(=O)CN=C(c2ccccc2)c2cc(Cl)ccc21 | -2.792
O=C1CN=C(c2ccccc2F)c2ccccc2N1 | -1.322
O=C1Nc2ccc(Cl)cc2C(c2ccccc2F)=NC1Cl (centres undefined) | -0.724
CN1C(=O)CN=C(c2ccccc2)c2cc(Cl)c(Cl)cc21 | -1.602
CN1C(=O)CN=C(c2ccccc2)c2cc(F)ccc21 | -1.23
CN1C(=O)CN=C(c2ccccc2F)c2cc(C#N)ccc21 | -1.477
CC1N=C(c2ccccc2)c2cc(Cl)ccc2N(Cl)C1=O (centres undefined) | -1.69
CN1C(=O)CN=C(c2ccccc2)c2cc(N)ccc21 | -2.663
O=C1CN=C(c2c(F)cccc2F)c2ccccc2N1 | -1.279
O=C1CN=C(c2c(F)cccc2F)c2ccc(Cl)cc2N1 | -1.447
O=C1CN=C(c2c(F)cccc2F)c2cc(Cl)ccc2N1 | -0.204
O=C1CN=C(c2ccccc2F)c2cc(F)ccc2N1 | -0.869
CN1C(=O)CN=C(c2ccccc2)c2cc(C#N)ccc21 | -2.58
O=C1CN=C(c2ccccc2C(F)(F)F)c2cc([N+](=O)[O-])ccc2N1 | -0.544
[N-]=[N+]=Nc1ccc2c(c1)C(c1ccccc1F)=NCC(=O)N2 | -0.724
CC(C)(C)N1C(=O)CN=C(c2ccccc2F)c2cc([N+](=O)[O-])ccc21 | -2.477
Cc1ccc2c(c1)NC(=O)CN=C2c1ccccc1F | -1.279
CN1C(=O)CN=C(c2c(F)cccc2F)c2cc(Cl)ccc21 | -0.613
C=Cc1ccc2c(c1)C(c1ccccc1)=NCC(=O)N2 | -1.38
CCc1ccc2c(c1)C(c1ccccc1)=NCC(=O)N2 | -1.556
O=Cc1ccc2c(c1)C(c1ccccc1)=NCC(=O)N2 | -1.633
CN1C(=O)CN=C(c2c(F)cccc2F)c2cc(Br)ccc21 | -0.38

Structure (SMILES) | Log IC50
CN1C(=O)CN=C(c2ccccc2Cl)c2ccccc21 | -0.58
CN1C(=O)CN=C(c2ccccc2F)c2cc(I)ccc21 | -0.462
CN1C(=O)CN=C(c2ccccc2F)c2cc(NO)ccc21 | -1.982
CN1C(=O)CN=C(c2ccccc2F)c2cc(F)ccc21 | -0.708
O=C1CN=C(c2ccccc2F)c2cc([N+](=O)[O-])ccc2N1 | -0.176
CN1C(=O)CN=C(c2c(Cl)cccc2Cl)c2cc(Cl)ccc21 | -0.74
O=C1CN=C(c2ccccc2F)c2cc(Cl)ccc2N1 | -0.301
CN1C(=O)CN=C(c2ccccc2F)c2cc(N)ccc21 [7-AMINO-FLUNITRAZEPAM] | -1.813
Nc1ccc2c(c1)C(c1ccccc1)=NCC(=O)N2 [7-AMINO-NITRAZEPAM] | -2.587
Nc1ccc2c(c1)C(c1ccccc1Cl)=NCC(=O)N2 [7-AMINOCLONAZEPAM] | -1.875
O=C1CN=C(c2ccccc2Cl)c2cc([N+](=O)[O-])ccc2N1 [CLONAZEPAM] | -0.255
O=C1CN=C(c2ccccc2Cl)c2cc(Cl)ccc2N1 [DELORAZEPAM] | -0.255
O=C1CN=C(c2ccccc2)c2cc(Cl)ccc2N1CC(F)(F)F [HALAZEPAM] | -1.964
COCN1C(=O)CN=C(c2ccccc2)c2cc([N+](=O)[O-])ccc21 [MOTRAZEPAM] | -2.633
O=C1CN=C(c2ccccc2)c2cc([N+](=O)[O-])ccc2N1 [NITRAZEPAM] | -1
O=C1CN=C(c2ccccc2)c2cc(Cl)ccc2N1 [NORDAZEPAM] | -0.973
O=C1CN=C(c2ccccc2)c2cc(C(F)(F)F)ccc2N1 [RO-052904] | -1.114
O=C1CN=C(c2ccccc2)c2cc(F)ccc2N1 [RO-053061] | -1.602
CN1C(=O)CN=C(c2ccccc2Cl)c2cc([N+](=O)[O-])ccc21 [RO-054082] | -0.342
CN1C(=O)CN=C(c2ccccc2F)c2ccccc21 [RO-054520] | -1.146
O=C1CN=C(c2c(Cl)cccc2Cl)c2cc(Cl)ccc2N1 [RO-223294] | -0.845
CN1C(=O)C(O)N=C(c2ccccc2)c2cc(Cl)ccc21 (centres undefined) [TEMAZEPAM] | -1.204

Source: ChEMBL document CHEMBL1128247, “Prediction of receptor properties and binding affinity of ligands to benzodiazepine/GABAA receptors using artificial neural networks” (J Med Chem, 1995)
